# Reference: patent US8716284B2, “Adamantyl diamide derivatives and uses of same” (H. Lundbeck A/S, priority 2008, dated 2014)
# Target: T1, rat metabotropic glutamate receptor 5 (mGluR5) (Rattus norvegicus, UniProt P31424)
# T1 construct: expressed in transfected cells; host or cells: HEK 293
# Assay: Calcium mobilization assay (FLIPR) for negative or positive allosteric activity, HEK 293 cells
# Format: cell-based
# Details: HEK293, negative allosteric modulation, inhibition of EC80 glutamate response; read-out: FLIPR maximum inhibition
# In short: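 HEK 293 cells stably expressing rat mGluR5, Fluo-4 loaded in HEPES-buffered HBSS pH 7.4 with 0.1% BSA and probenecid. Compound added with EC20 (potentiation) or EC80 (inhibition) glutamate; fluorescence read over 3 min at room temperature. Basal-subtracted maximum fluorescence change fitted to Hill equation.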
# T1 sequence (P31424 21-1171 isoform P31424-2 limits assumed): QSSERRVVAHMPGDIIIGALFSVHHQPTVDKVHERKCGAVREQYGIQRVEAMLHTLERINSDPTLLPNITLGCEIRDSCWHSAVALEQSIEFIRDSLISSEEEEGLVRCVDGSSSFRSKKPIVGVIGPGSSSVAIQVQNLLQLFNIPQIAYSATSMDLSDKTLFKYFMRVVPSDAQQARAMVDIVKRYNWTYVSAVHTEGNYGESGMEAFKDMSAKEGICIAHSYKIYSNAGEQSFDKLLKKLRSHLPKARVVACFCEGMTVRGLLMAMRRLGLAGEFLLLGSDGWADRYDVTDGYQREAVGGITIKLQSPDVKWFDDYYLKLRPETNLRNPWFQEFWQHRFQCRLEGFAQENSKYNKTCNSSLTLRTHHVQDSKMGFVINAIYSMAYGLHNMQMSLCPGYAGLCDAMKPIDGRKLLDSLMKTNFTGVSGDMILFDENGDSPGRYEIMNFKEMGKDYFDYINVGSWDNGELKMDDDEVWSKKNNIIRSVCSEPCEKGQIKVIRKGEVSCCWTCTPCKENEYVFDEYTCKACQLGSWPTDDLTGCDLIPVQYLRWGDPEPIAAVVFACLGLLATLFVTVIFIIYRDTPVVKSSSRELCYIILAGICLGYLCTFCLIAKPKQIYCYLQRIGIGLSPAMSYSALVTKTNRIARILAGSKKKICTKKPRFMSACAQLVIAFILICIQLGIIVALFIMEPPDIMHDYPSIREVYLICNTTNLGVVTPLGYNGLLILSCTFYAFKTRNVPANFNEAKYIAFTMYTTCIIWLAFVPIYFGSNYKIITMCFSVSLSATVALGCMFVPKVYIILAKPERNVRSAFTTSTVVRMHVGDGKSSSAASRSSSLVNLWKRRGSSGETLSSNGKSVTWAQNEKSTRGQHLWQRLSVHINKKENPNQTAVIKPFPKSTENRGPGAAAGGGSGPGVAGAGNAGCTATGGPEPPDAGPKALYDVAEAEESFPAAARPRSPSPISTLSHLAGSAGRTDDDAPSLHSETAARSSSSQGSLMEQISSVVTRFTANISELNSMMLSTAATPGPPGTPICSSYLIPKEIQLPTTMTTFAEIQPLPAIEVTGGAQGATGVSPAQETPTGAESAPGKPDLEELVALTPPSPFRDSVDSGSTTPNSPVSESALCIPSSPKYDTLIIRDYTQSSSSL
row,Emax,Compound
1,63 to 99%,"Cc1cccc(C(=O)NC23CC4CC(CC(NC(=O)c5cccnn5)(C4)C2)C3)n1 [Example 24, Pyridazine-3-carboxylic acid {3-[(6-methyl-pyridine-2-carbonyl)-amino]-adamantan-1-yl}-amide]"
2,63 to 99%,"COCCN(C)c1cccc(C(=O)NC23CC4CC(CC(NC(=O)c5ccccn5)(C4)C2)C3)n1 [Example 225, 6-[(2-Methoxy-ethyl)-methyl-amino]-pyridine-2-carboxylic acid {3-[(pyridine-2-carbonyl)-amino]-adamantan-1-yl}-amide]"
3,63 to 99%,"O=C(NC12CC3CC(C1)CC(NC(=O)c1cn4ccccc4n1)(C3)C2)c1ccccn1 [Example 88, Imidazo[1,2-a]pyridine-2-carboxylic acid {3-[(pyridine-2-carbonyl)-amino]-adamantan-1-yl}-amide]"
4,63 to 99%,"CN(C)CCN(C)c1cccc(C(=O)NC23CC4CC(CC(NC(=O)c5cccc(F)c5)(C4)C2)C3)n1 [Example 248, 6-[(2-Dimethylamino-ethyl)-methyl-amino]-pyridine-2-carboxylic acid [3-(3-fluoro-benzoylamino)-adamantan-1-yl]-amide]"
5,70 to 99%,"Cc1cc(C(=O)NC23CC4CC(C2)CC(NC(=O)c2cncc(C)n2)(C4)C3)ccn1 [Example 156, 6-Methyl-pyrazine-2-carboxylic acid {3-[(2-methyl-pyridine-4-carbonyl)-amino]-adamantan-1-yl}-amide]"
6,63 to 99%,"Cc1ccn2cc(C(=O)NC34CC5CC(CC(NC(=O)c6ccccn6)(C5)C3)C4)nc2c1 [Example 91, 7-Methyl-imidazo[1,2-a]pyridine-2-carboxylic acid {3-[(pyridine-2-carbonyl)-amino]-adamantan-1-yl}-amide]"
7,63 to 99%,"Cc1ccc2nc(C(=O)NC34CC5CC(CC(NC(=O)c6cccc(C)n6)(C5)C3)C4)cn2c1 [Example 54, 6-Methyl-imidazo[1,2-a]pyridine-2-carboxylic acid {3-[(6-methyl-pyridine-2-carbonyl)-amino]-adamantan-1-yl}-amide]"
8,63 to 99%,"Cc1cccc(C(=O)NC23CC4CC(C2)CC(NC(=O)c2cccc(N5CCC[C@H]5CO)n2)(C4)C3)n1 [Example 237, 6-((S)-2-Hydroxymethyl-pyrrolidin-1-yl)-pyridine-2-carboxylic acid {3-[(6-methyl-pyridine-2-carbonyl)-amino]-adamantan-1-yl}-amide]"
9,63 to 99%,"O=C(NC12CC3CC(C1)CC(NC(=O)c1cccs1)(C3)C2)c1cccs1 [Example 14, N,N′-(1,3-adamantylene)bis(thiophene-2-carboxamide)]"
10,70 to 99%,"Cc1cccc(C(=O)NC23CC4CC(C2)CC(NC(=O)c2cc(C)nc(C)n2)(C4)C3)n1 [Example 118, 2,6-Dimethyl-pyrimidine-4-carboxylic acid {3-[(6-methyl-pyridine-2-carbonyl)-amino]-adamantan-1-yl}-amide]"
11,63 to 99%,"O=C(NC12CC3CC(C1)CC(NC(=O)c1cccc(N4CCC(O)C4)n1)(C3)C2)c1ccccn1 (centres unmarked) [Example 201, 6-(3-Hydroxy-pyrrolidin-1-yl)-pyridine-2-carboxylic acid {3-[(pyridine-2-carbonyl)-amino]-adamantan-1-yl}-amide]"
12,63 to 99%,"COCCNc1cccc(C(=O)NC23CC4CC(CC(NC(=O)c5cccc(F)c5)(C4)C2)C3)n1 [Example 245, 6-(2-Methoxy-ethylamino)-pyridine-2-carboxylic acid [3-(3-fluoro-benzoylamino)-adamantan-1-yl]-amide]"
13,63 to 99%,"COCCCNc1cccc(C(=O)NC23CC4CC(CC(NC(=O)c5ccccn5)(C4)C2)C3)n1 [Example 220, 6-(3-Methoxy-propylamino)-pyridine-2-carboxylic acid {3-[(pyridine-2-carbonyl)-amino]-adamantan-1-yl}-amide]"
14,70 to 99%,"Cc1cccc(C(=O)NC23CC4CC(CC(NC(=O)c5cc(Br)ccn5)(C4)C2)C3)n1 [Example 138, 6-Methyl-pyridine-2-carboxylic acid {3-[(4-bromo-pyridine-2-carbonyl)-amino]-adamantan-1-yl}-amide]"
15,70 to 99%,"O=C(NC12CC3CC(C1)CC(NC(=O)c1cc(F)ccn1)(C3)C2)c1ccccn1 [Example 108, 4-Fluoro-pyridine-2-carboxylic acid{3-[(pyridine-2-carbonyl)-amino]-adamantan-1-yl}-amide]"
16,63 to 99%,"O=C(NC12CC3CC(C1)CC(NC(=O)c1cn4cc(Cl)ccc4n1)(C3)C2)c1ccccn1 [Example 86, 6-Chloro-imidazo[1,2-a]pyridine-2-carboxylic acid {3-[(pyridine-2-carbonyl)-amino]-adamantan-1-yl}-amide]"
17,63 to 99%,"O=C(NC12CC3CC(C1)CC(NC(=O)c1ccccn1)(C3)C2)c1ccn2ccnc2c1 [Example 87, Imidazo[1,2-a]pyridine-7-carboxylic acid {3-[(pyridine-2-carbonyl)-amino]-adamantan-1-yl}-amide]"
18,63 to 99%,"Cc1cncc(C(=O)NC23CC4CC(C2)CC(NC(=O)c2cncc(C)n2)(C4)C3)c1 [Example 165, 6-Methyl-pyrazine-2-carboxylic acid {3-[(5-methyl-pyridine-3-carbonyl)-amino]-adamantan-1-yl}-amide]"

row,Emax,Compound
1,70 to 99%,"Cc1cccc(C(=O)NC23CC4CC(C2)CC(NC(=O)c2nccc(C)n2)(C4)C3)n1 [Example 141, 4-Methyl-pyrimidine-2-carboxylic acid {3-[(6-methyl-pyridine-2-carbonyl)-amino]-adamantan-1-yl}-amide]"
2,90 to 99%,"N#Cc1cccc(C(=O)NC23CC4CC(C2)CC(NC(=O)c2ccccn2)(C4)C3)c1 [Example 7, Pyridine-2-carboxylic acid[3-(3-cyano-benzoylamino)-adamantan-1-yl]-acid]"
3,63 to 99%,"CN(C)CCCN(C)c1cccc(C(=O)NC23CC4CC(CC(NC(=O)c5ccccn5)(C4)C2)C3)n1 [Example 221, 6-[(3-Dimethylamino-propyl)-methyl-amino]-pyridine-2-carboxylic acid {3-[(pyridine-2-carbonyl)-amino]-adamantan-1-yl}-amide]"
4,90 to 99%,"O=C(NC12CC3CC(C1)CC(NC(=O)c1cccc(Cl)c1)(C3)C2)c1cccc(Cl)c1 [Example 3, N,N′-(1,3-adamantylene)bis(3-chloro-benzamide)]"
5,63 to 99%,"CNC(=O)c1cccc(C(=O)NC23CC4CC(CC(NC(=O)c5ccccn5)(C4)C2)C3)n1 [Example 64, Pyridine-2,6-dicarboxylic acid 2-methylamide 6-({3-[(pyridine-2-carbonyl)-amino]-adamantan-1-yl}-amide)]"
6,63 to 99%,"Cc1cccc(C(=O)NC23CC4CC(CC(NC(=O)c5ccc6nccn6c5)(C4)C2)C3)n1 [Example 53, Imidazo[1,2-a]pyridine-6-carboxylic acid {3-[(6-methyl-pyridine-2-carbonyl)-amino]-adamantan-1-yl}-amide]"
7,63 to 99%,"Cc1cncc(C(=O)NC23CC4CC(C2)CC(NC(=O)c2cccc(F)n2)(C4)C3)n1 [Example 164, 6-Methyl-pyrazine-2-carboxylic acid {3-[(6-fluoro-pyridine-2-carbonyl)-amino]-adamantan-1-yl}-amide]"
8,70 to 99%,"CCOc1cc(C(=O)NC23CC4CC(C2)CC(NC(=O)c2cncc(C)n2)(C4)C3)ccn1 [Example 155, 6-Methyl-pyrazine-2-carboxylic acid {3-[(2-ethoxy-pyridine-4-carbonyl)-amino]-adamantan-1-yl}-amide]"
9,63 to 99%,"Cc1cccc(C(=O)NC23CC4CC(C2)CC(NC(=O)c2cn5c(C)cccc5n2)(C4)C3)n1 [Example 55, 5-Methyl-imidazo[1,2-a]pyridine-2-carboxylic acid {3-[(6-methyl-pyridine-2-carbonyl)-amino]-adamantan-1-yl}-amide]"
10,63 to 99%,"CN1CCN(c2cccc(C(=O)NC34CC5CC(CC(NC(=O)c6cccc(F)c6)(C5)C3)C4)n2)CC1 [Example 216, 6-(4-Methyl-piperazin-1-yl)-pyridine-2-carboxylic acid [3-(3-fluoro-benzoylamino)-adamantan-1-yl]-amide]"
11,63 to 99%,"Cc1cccc(C(=O)NC23CC4CC(CC(NC(=O)c5ccncn5)(C4)C2)C3)n1 [Example 35, Pyrimidine-4-carboxylic acid {3-[(6-methyl-pyridine-2-carbonyl)-amino]-adamantan-1-yl}-amide]"
12,63 to 99%,"Cc1cccc(C(=O)NC23CC4CC(C2)CC(NC(=O)c2cccc(C(F)(F)F)n2)(C4)C3)n1 [Example 23, 6-Trifluoromethyl-pyridine-2-carboxylic acid {3-[(6-methyl-pyridine-2-carbonyl)-amino]-adamantan-1-yl}-amide]"
13,70 to 99%,"Cc1cccc(C(=O)NC23CC4CC(CC(NC(=O)c5cccc(N(C)C)c5)(C4)C2)C3)n1 [Example 114, 6-Methyl-pyridine-2-carboxylic acid [3-(3-dimethyl-amino-benzoylamino)-adamantan-1-yl]-amide]"
14,70 to 99%,"Cc1cncc(C(=O)NC23CC4CC(CC(NC(=O)c5cc(F)cc(Cl)c5)(C4)C2)C3)n1 [Example 163, 6-Methyl-pyrazine-2-carboxylic acid [3-(3-chloro-5-fluoro-benzoylamino)-adamantan-1-yl]-amide]"
15,70 to 99%,"Cc1cncc(C(=O)NC23CC4CC(C2)CC(NC(=O)c2csc(C)n2)(C4)C3)n1 [Example 157, 6-Methyl-pyrazine-2-carboxylic acid {3-[(2-methyl-thiazole-4-carbonyl)-amino]-adamantan-1-yl}-amide]"
16,70 to 99%,"Cc1cccc(C(=O)NC23CC4CC(C2)CC(NC(=O)c2ccc5cnccc5n2)(C4)C3)n1 [Example 123, [1,6]Naphthyridine-2-carboxylic acid {3-[(6-methyl-pyridine-2-carbonyl)-amino]-adamantan-1-yl}-amide]"
17,63 to 99%,"COc1cccc(C(=O)NC23CC4CC(C2)CC(NC(=O)c2cccc(C)n2)(C4)C3)c1 [Example 43, 6-Methyl-pyridine-2-carboxylic acid [3-(3-methoxy-benzoylamino)-adamantan-1-yl]-amide]"
